In US4530932A, “4-(1H-indol-3-yl)-α-methyl-piperidine-1-ethanol derivatives” (Roussel Uclaf, priority 1982, dated 1985):
Structures can show the parent of a compound that is named as a salt. Where two headings read alike, the source gives them in different places.

Tests used:
[1] = test system: cardiac rhythm troubles in guinea pigs; test: Antiarythmic action (K-strophanthine and adrenaline induced cardiac rhythm troubles); type: in vivo, guinea pig; conditions: Cavia porcellus, 1 h, oral 10 mg/kg, one hour before K-strophanthine and adrenaline perfusion, read-out: Percentage of protection (lengthening of the time of appearance of cardiac rhythm troubles as compared to controls)
Experimental: Male guinea pigs weighing between 450 and 500 g were tracheotomized while anesthesized by intraperitoneal administration of […] of urethane and were subjected to artifical respiration of 40 to 50 breaths of 5 ml per minute. Needles were subcutaneously implanted to register an electrocardiogram of the guinea pigs for the signal of D II derivation. The test products were orally administered and one hour later, the jugular vein of the guinea pigs were perfused with 0.5 ml per minute of a solution of 150 γ/ml of K-strophanthine and 0.5 ml per minute of a solution of 5 γ/ml of adrenaline and the number of times of the appearance of cardiac rhythm troubles was noted. The results are expressed in percentage of protection with an oral dose of 10 mg/kg of test product that is to say the percentage of lengthening of the time of appearance of cardiac rhythm troubles as compared to the controls.

β2 -adrenergic receptors = biological target: T1, β2 -adrenergic receptors (Rattus norvegicus, UniProt P10608); test: Affinity for β2 adrenergic receptors (3H dihydroalprenolol displacement, rat cerebellum); type: binding; conditions: relative to propranolol, 37° C., pH 7.7
T1 construct: cerebellums of male rats weighing an average of 150 g; from tissue; host or cells: cerebellum of male rats (membranes)
Experimental: The technique was inspired by that of Mohler et al [Science, Vol. 198 (1977), p. 849-851] and the cerebellums of male rats weighing an average of 150 g were homogenized in 90 ml of 0.32M sucrose. After centrifugation of the homogenized mixture at 1000 g for 20 minutes at 0° C., the surnageant was centrifuged at 30,000 g for 15 minutes at 0° to 4° C. The culot was suspended in 120 ml of buffer Tris HCl (50 mM-pH of 7.7) and the suspension was centrifuged at 30,000 g for 15 minutes at 0° to 4° C. The resulting culot was suspended in 480 ml of buffer Krebs Tris HCl with a pH of 7.7 and 2 ml of the suspension was incubated at 37° C. for 10 minutes in the presence of 3H dihydroalprenolol at a concentration of 10^-9 M alone and with increasing concentrations of the test compound or with 10^-5 M of non-radioactive propranolol to determine the non-specific fixation.
The incubated suspensions were filtered through Whatman FG/C filter and the filters were rinsed 3 times with 5 ml of buffer Krebs Tris HCl with a pH of 7.7 at 0° C. The radioactivity of the filters was measured by liquid scintillation and the affinity of the test compounds for β2 -adrenergic receptors relative to propranolol as a standard was determined similar as to Test D. The results are reported in Table VII.

[2] = test system: Rat arteries (arterial contractions, entry of calcium ions into the cells of smooth muscles); test: In vitro anticalcic activity (inhibition of potassium-depolarized, calcium-induced contractions of isolated rat arteries); type: cell-based; conditions: dose inhibiting by 50% the contractions caused by potassium ions (100 mM), 37° C., read-out: CI50 (the source's name)
Experimental: Rat arteries decoupled in a spiral were attached to a tension collector and were maintained in tanks containing 2.5 ml of Krebs-sodium bicarbonate buffer (NaCl: 120.8 mM, KCl: 5.9 mM, MgCl2 : 1.2 mM, NaH2 PO4 : 1.2 mM, NaHCO3 : 15.5 mM, glucose: 12.6 mM), at 37° C. covered with a 95%-5% oxygen-carbon dioxide mixture. The preparations were depolarized with a buffered solution containing 100 mM of potassium ions (NaCl: 26.7 mM, KCl: 100 mM, MgCl2 : 1.2 mM, NaH2 PO4 : 1.2 mM, NaHCO3 : 15.5 mM, glucose 12.6 mM).
A volume of 25 μl of calcium chloride was added to the mixture in a manner to obtain a range of increasing concentrations of calcium ions from 0.1 to 3.0 mM and the contractions of the artery were measured to obtain a control. The operation with range of calcium ions was repeated every 15 minutes and the preparation was washed 4 times after each range. When a stable response was obtained, the operation with the range of calcium ions was effected in the presence of varying concentrations of test compounds until a stable response was obtained.
The arterial contractions depend on the entry of calcium ions into the cells of smooth muscles and are provoked by depolarization of smooth muscles by potassium ions and by action of noradrenaline freed by presynapthic level. By recommencing the operation with denerved arteries by the action of 6-hydroxy-dopamine, the specific action due to noradrenaline is suppressed.

β1 adrenergic receptors = biological target: T2, β1 adrenergic receptors (Rattus norvegicus, UniProt P18090); test: Affinity for β1 adrenergic receptors (3H dihydroalprenolol displacement, rat brain cortex); type: binding; conditions: relative to propranolol, 37° C., pH 7.7
T2 construct: 10 cortexes removed from the brains of male rats weighing an average of 150 g; from tissue; host or cells: cerebral cortex of male rats (membranes)
Experimental: The test was inspired by that of Mohler et al [Science, Vol. 198 (1977), p. 849-851] and 10 cortexes removed from the brains of male rats weighing an average of 150 g were homogenized in 90 ml of 0.32M of sucrose. After centrifuging the homogenized mixture at 1000 g for 20 minutes at 0° C., the surnageant was centrifuged at 30,000 g for 15 minutes at 0° to 4° C. The culot was suspended in 120 ml of buffer Tris HCl 50 mM with a pH of 7.7 and was centrifuged at 30,000 g for 15 minutes at 0° to 4° C. The resulting culot was suspended in 480 ml of buffer Krebs Tris HCl (50 mM-pH of 7.7) and 2 ml of the suspension in the presence of 3H dihydroalprenolol at a concentration of 10^-9 M alone and with increasing concentrations of the test compound or with non-radioactive propranolol at a concentration of 10^-5 M to determine the non-specific fixation was incubated at 37° C. for 10 minutes.
The incubated suspensions were filtered through Whatman GF/C and the filters were washed 3 times with 5 ml of buffer Krebs Tris HCl (pH-7.7) at 0° C. The radioactivity of the filters was measured by liquid scintillation and the affinity of the test compounds for β1 -adrenergic receptors was compared using propranolol as a standard as in Test D. The results are reported in Table VI.

α1 adrenergic receptors = test: Affinity for α1 adrenergic receptors (3H prazosine displacement, rat brain); type: binding; conditions: relative to phentolamine (ARL=100×(CB/CX)), 25° C., pH 7.7
Experimental: After centrifugation at 30,000 g for 15 minutes at 0° to 4° C., the culot was suspended in 240 ml of buffer Tris HCl 50 mM (pH-7.7) and the suspension was centrifuged at 30,000 g for 20 minutes at 0° to 4° C. The new culot was suspended in 480 ml of buffer Krebs Tris HCl (pH of 7.7-50 mM) and 2 ml of the suspension in the presence of 3H prazosine at a concentration of […] alone and with increasing concentrations of the test compound or with non-radioactive phentolamine at a concentration of 10^-5 M to determine the non-specific fixation was incubated at 25° C. for 30 minutes.
The incubated suspensions were filtered through Whatman FG/C and the filtered were washed with 3 times with 5 ml of buffer Krebs Tris HCl-pH of 7.7 at 0° to 4° C. The radioactivity of the filters was measured by liquid scintillation and the affinity of the test compound for α1 adrenergic receptors was compared relative to phentolamine as the reference compound by the formula
CD=concentration of phentolamine inhibiting by 50% the specific fixation of 3H prazosine.
CX=concentration of test product inhibiting by 50% the specific fixation of 3H prazosine.

mice = test: Acute toxicity (DL0, oral); type: in vivo, mouse; set-up: unit not given here
[3] = test system: carotidien arterial pressure in rats; test: Hypotensive activity (carotidien arterial pressure in anesthesized rats); type: in vivo, rat (Wistar); conditions: rat, intravenous
Experimental: The hypotensive activity was studied on male rats of the Wistar strain weighing about 300 g and anesthesized with 50 mg/kg of nembutal intraveinously. The test products were administered intraveinously by the jugular vein and the carotidien arterial pressure was measured before and after administration of the test compounds. The variations expressed in percentage of arterial pressure after administration with respect to the initial pressure is reported in Table IV.

[4] = 1 min, 1 minute, read-out: % Variation of arterial pressure after administration, 1 minute
[5] = 5 min, 5 minutes, read-out: % Variation of arterial pressure after administration, 5 minutes
[6] = 10 min, 10 minutes, read-out: % Variation of arterial pressure after administration, 10 minutes
[7] = 0.5 h, 30 minutes, read-out: % Variation of arterial pressure after administration, 30 minutes

T2 sequence (P18090 whole entry): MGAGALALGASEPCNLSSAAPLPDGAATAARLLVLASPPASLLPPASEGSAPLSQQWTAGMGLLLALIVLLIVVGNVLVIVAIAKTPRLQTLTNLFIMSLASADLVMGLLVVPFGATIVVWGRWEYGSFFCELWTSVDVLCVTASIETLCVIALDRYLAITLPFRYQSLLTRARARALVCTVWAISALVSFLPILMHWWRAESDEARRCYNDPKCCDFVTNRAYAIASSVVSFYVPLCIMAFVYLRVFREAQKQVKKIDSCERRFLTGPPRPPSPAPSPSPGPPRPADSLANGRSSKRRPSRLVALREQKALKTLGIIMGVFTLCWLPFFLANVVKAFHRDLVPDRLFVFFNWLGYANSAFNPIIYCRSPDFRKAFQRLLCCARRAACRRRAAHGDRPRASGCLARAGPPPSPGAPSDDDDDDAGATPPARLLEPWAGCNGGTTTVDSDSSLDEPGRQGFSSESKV
T1 sequence (P10608 whole entry): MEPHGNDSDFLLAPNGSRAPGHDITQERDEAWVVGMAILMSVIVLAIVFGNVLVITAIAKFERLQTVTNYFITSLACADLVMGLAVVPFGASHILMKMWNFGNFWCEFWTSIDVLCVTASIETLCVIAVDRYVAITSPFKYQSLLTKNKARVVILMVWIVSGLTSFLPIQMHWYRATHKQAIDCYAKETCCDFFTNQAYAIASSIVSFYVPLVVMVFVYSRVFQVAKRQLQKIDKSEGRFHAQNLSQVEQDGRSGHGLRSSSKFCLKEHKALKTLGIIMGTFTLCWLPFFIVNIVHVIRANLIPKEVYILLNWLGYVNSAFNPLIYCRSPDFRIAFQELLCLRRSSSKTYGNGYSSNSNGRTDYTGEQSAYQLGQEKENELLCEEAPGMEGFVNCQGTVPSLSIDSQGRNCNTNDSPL

Structure (SMILES)	change in vivo at 10 mg/kg [1]	ARL in % (relative affinity for β2 adrenergic receptors) (β2 -adrenergic receptors)	IC50 [2]	ARL in % (relative affinity for β1 adrenergic receptors) (β1 adrenergic receptors)	% Arl (relative affinity for α1 adrenergic receptors) (α1 adrenergic receptors)	DL0 (maximum dose which did not cause any deaths after 8 days) (mice)	change in vivo at 1 mg/kg [3, 4]	change in vivo at 1 mg/kg [3, 5]	change in vivo at 1 mg/kg [3, 6]	change in vivo at 1 mg/kg [3, 7]
C=CCOc1ccccc1OCC(O)CN1CCC(c2c[nH]c3ccccc23)CC1 (stereo not drawn) [Example 1, 4-(1H-indol-3-yl)-α-[{2-(prop-2-enyloxy)-phenoxy}-methyl]-piperidine-1-ethanol hydrochloride]	63%	10.5%	4 µM	7.3%	247%	100				
OC(COc1cccc2ccccc12)CN1CCC(c2c[nH]c3ccccc23)CC1 (stereo not drawn) [Example 2, 4-(1H-indol-3-yl)-α-[1-naphthyloxymethyl]-piperidine-1-ethanol]			3.5 µM	0.9%		> 1000				
C=CCc1ccccc1OCC(O)CN1CCC(c2c[nH]c3ccccc23)CC1 (stereo not drawn) [Example 7, 4-(1H--indol-3-yl)-α-[2-prop-2-enyl)-phenoxymethyl]-piperidine-1-ethanol hydrochloride]	50%	10%	0.32 µM	3.7%	100%	> 200				
Cc1ccccc1OCC(O)CN1CCC(c2c[nH]c3ccccc23)CC1 (stereo not drawn) [Example 9, 4-(1H--indol-3-yl)-α-[2-methylphenoxymethyl]-piperidine-1-ethanol hydrochloride]	48%		3.8 µM	2.55%	92%	> 100	-21%	-9%	-25%	-20%
OC(COc1ccccc1Cl)CN1CCC(c2c[nH]c3ccccc23)CC1 (stereo not drawn) [Example 10, 4-(1H--indol-3-yl)-α-[2-chlorophenoxymethyl]-piperidine-1-ethanol hydrochloride]	59%		2 µM	1.95%		> 100	-21%	-20%	-12%	-20%
O=[N+]([O-])c1ccccc1OCC(O)CN1CCC(c2c[nH]c3ccccc23)CC1 (stereo not drawn) [Example 11, 4-(1H--indol-3-yl)-α-[2-nitrophenoxymethyl]-piperidine-1-ethanol hydrochloride]	56%		4.2 µM	1.2%	77%	100				
OC(COc1ccccc1F)CN1CCC(c2c[nH]c3ccccc23)CC1 (stereo not drawn) [Example 12, 4-(1H--indol-3-yl)-α-[2-fluorophenoxymethyl]-piperidine-1-ethanol hydrochloride]	90%		3.2 µM	1.2%	233%	80	-27%	-14%	-27%	-24%
Oc1ccccc1OCC(O)CN1CCC(c2c[nH]c3ccccc23)CC1 (stereo not drawn) [Example 13, 4-(1H--indol-3-yl)-α-[2-hydroxy-phenoxymethyl]-piperidine-1-ethanol hydrochloride]	112%		4.5 µM	1.1%	293%	> 100				
OC(COc1ccccc1C1CCCCC1)CN1CCC(c2c[nH]c3ccccc23)CC1 (stereo not drawn) [Example 15, 4-(1H--indol-3-yl)-α-[2-cyclohexyl-phenoxymethyl]-piperidine-1-ethanol hydrochloride]		5.4%	5 µM			> 100				
C#CCc1ccccc1OCC(O)CN1CCC(c2c[nH]c3ccccc23)CC1 (stereo not drawn) [Example 16, 4-(1H--indol-3-yl)-α-[2-(prop-2-ynyl)-phenoxymethyl]-piperidine-1-ethanol hydrochloride]	71%	11%	1.6 µM	5.8%	321%	> 100				
